Consider 32 compounds from patent US9546196B2, “Compositions and methods of treatment of cancers” (The University of Toledo, priority 2009, dated 2017).

Ends that are not written are not given here. Peptide text beside a SMILES is read from it. * marks the point of attachment. Cbz = O=C(OCc1ccccc1)*; CH2F = FC*

One data set relates to LNCaP cell culture.
Test: not given
Type of data set: cell-based.
Details: not given
An excerpt: In one non-limiting example, Peptide A-8R [SEQ ID NO: 1] can be truncated to a smaller peptide that retains the same type of biological activity profile. In certain embodiments, truncating Peptide A-8R [SEQ ID NO: 1] results in greater potency upon conversion of some of the pharmacophore functionalities to peptidomimetic groups that can, in turn, enhance key interactions by lowering the net binding energy. In one experiment, Peptide A-8R [SEQ ID NO: 1] was divided into two parts, using the central proline residue as the division point. […] A minimum number of amino acids desired for cytotoxicity was then identified. […] The following Peptide A truncated and derivative probes were synthesized and evaluated for their effect on cytotoxicity after 3- and 6-day exposures:
The following table lists cell culture data for truncated Peptide A peptides. The amino acid sequences and IC50 values in μM concentrations depict cytotoxicity after 3- and 6-day exposures (“NotA” means not active). “8R” [SEQ ID NO: 6] signifies that 8 arginines are present on the carboxy terminus to mediate membrane translocation. The data has shown that the 8R terminus [SEQ ID NO: 6] can be either as the free carboxy (—OH) or amide (—NH2) with no alteration of permeation or observed activity.
The table below lists LNCaP cell culture data for various Peptide A derivatives, displaying the observed IC50 values in μM concentrations after 3- and 6-day exposures.
For the compound `C[C@H](NC(=O)[C@H](CCCCN)NC(=O)[C@H](CS)NC(=O)[C@@H](N)Cc1ccccc1)C(=O)O` [FA4, FCKA] (H-FCKA-OH), the “cytotoxicity / activity in cells (in words)” value (“cytotoxicity / activity” below) is reported as “diminished but yet still significant cytotoxicity”. Take `C[C@@H](O)[C@H](N)C(=O)N[C@@H](Cc1ccccc1)C(=O)N[C@@H](CS)C(=O)O` [TC3, TFC] (H-Thr-Phe-Cys-OH): the “cytotoxicity / activity” value is given as “diminished but yet still significant cytotoxicity”. Consider ACKAFRRRRRRRR-NH2 [AF5-8R], for which the Cytotoxicity result is on record as “Yes”.

For the compound CKAFRRRRRRRR-NH2 [Peptide CF4-8R], the Cytotoxicity result is listed as “Yes” and the “cytotoxicity / activity” value was “lower-level activities retained”. For FAKAFRRRRRRRR-NH2 [Peptide FF5-C2A-8R], in that order: “Yes” and “dramatically reduced activity”. With FCAAFRRRRRRRR-NH2 [FF5-K3M-8R], the Cytotoxicity entry is “Yes”. Still for that read-out and setting: the result for FCKAARRRRRRRR-NH2 [FA5-8R] reads “Yes”; that for FCKAF [FF5-OH, FCKAF], “No”. Turning to FCKAF [FF5], the “cytotoxicity / activity” value is “inactive”. For the compound FCKAF-NH2 [FF5-NH2, FCKAF], the Cytotoxicity entry is reported as “No”.

Take FCKAFPRRRRRRRR-NH2 [Peptide FP6-8R]: the Cytotoxicity result was “Yes”. On the same count and under the same terms, the result for FCKAFRRRRRRRR-NH2 [Peptide FF5-8R] reads “Yes”.

FCKARRRRRRRR [Peptide FA4-8R]: the Cytotoxicity result is recorded as “Yes” and the “cytotoxicity / activity” value is given as “lower-level activities retained”. As for FMKAFRRRRRRRR-NH2 [Peptide FF5-C2M-8R], the Cytotoxicity result is on record as “Yes” and the “cytotoxicity / activity” value is recorded as “significant activity was retained”. For KAFPFHRRRRRRRR [Peptide KH6-8R], the Cytotoxicity result is “No”. Still for that read-out and setting: the result for KAFPRRRRRRRR [Peptide KP4-8R] reads “No”. With PFHII [PI5, PFHII], the “cytotoxicity / activity” value is reported as “no activity”.

Consider PFHIIRRRRRRRR-NH2 [Peptide PI5-8R], for which the Cytotoxicity entry was “No”. For TFCKAFP [TP7, TFCKAFP], the “cytotoxicity / activity” value was “retained cytotoxicity”.

With TFCKAFPRRRRRRRR-NH2 [Peptide TP7-8R], the Cytotoxicity entry was “Yes”. Turning to TFCKAFRRRRRRRR-NH2 [Peptide TF6-8R], the Cytotoxicity result is recorded as “Yes” and the “cytotoxicity / activity” value is “quite comparable”.

Take TFCRRRRRRRR [Peptide TC3-8R]: the Cytotoxicity result is listed as “Yes” and the “cytotoxicity / activity” value is “lower-level activities retained”.

In the next data set the test system is p53 transcriptional activity. Description: p53-Luc reporter assay, sGCα1-mediated repression of p53 transcriptional activity in LNCaP cells. Type of data set: cell-based. Particulars: 100 nM of drug. An excerpt:
FIGS. 1A-1F: Over-expression of sGCα1 inhibits p53 transcriptional activity. p53 activity was quantified by measuring luciferase activity. Bar graphs represent the average of three independent experiments plus standard deviation. All cells received the same amount of transfected expression plasmid and that pCH110 was used to control transfection efficiency.
FIGS. 2A-2F: The sGCα1-mediated repression of p53 transcriptional activity is independent of mediators of NO signaling and guanylyl cyclase activity. Androgen-dependent LNCaP cells were transfected with 0.5 μg pCH110, 0.1 μg p53-Luc reporter plasmid, and subjected to different treatments:
FIG. 2A: Cells were transfected with 0.5 μg pCH110, 0.1 μg p53-Luc reporter plasmid, and subjected to […] ODQ.
FIG. 2C: Cells were treated with different concentrations of C-PTIO.
FIG. 2D: Cells were treated with different concentrations of SNP.
FIG. 2E: Cells were treated with different concentrations of 8-Br-cGMP.
(§1) To determine whether nitric oxide (NO) signaling is involved in sGCα1-mediated repression of p53 transcriptional activity, NO interfering drugs were used.
Supporting this finding, the NO donor SNP had no effect (FIG. 2D).
On the technique in general: Reporter assays use an easily measured gene product as a stand-in for the process of interest.
For `CC1(C)N([O])C(c2ccc(C(=O)O)cc2)=[N+]([O-])C1(C)C` [C-PTIO], the p53 activity result is recorded as “inhibit p53 activity”.

The same data set, now with this note: 5 or 50 mM ODQ.
As for `O=c1onc2cnc3ccccc3n12` [ODQ], the “effect on sGCα1-mediated repression of p53” value is “no effect”.

Still in this data set, the particulars now being: different concentrations.
In the case of `Nc1nc2c(nc(Br)n2[C@@H]2O[C@@H]3COP(=O)(O)O[C@H]3[C@H]2O)c(=O)[nH]1` [Peptide 8-Br-cGMP, 8-Br-cGMP], the p53 transcriptional activity entry is “weakly enhanced”.

For another data set, the target named is sGC (Homo sapiens, UniProt Q02153). Put plainly: sGC-catalyzed cGMP synthesis (data not shown). The settings on record: the two ODQ concentrations. Type of data set: biochemical.
Sequence of sGC (Q02108 whole entry partner): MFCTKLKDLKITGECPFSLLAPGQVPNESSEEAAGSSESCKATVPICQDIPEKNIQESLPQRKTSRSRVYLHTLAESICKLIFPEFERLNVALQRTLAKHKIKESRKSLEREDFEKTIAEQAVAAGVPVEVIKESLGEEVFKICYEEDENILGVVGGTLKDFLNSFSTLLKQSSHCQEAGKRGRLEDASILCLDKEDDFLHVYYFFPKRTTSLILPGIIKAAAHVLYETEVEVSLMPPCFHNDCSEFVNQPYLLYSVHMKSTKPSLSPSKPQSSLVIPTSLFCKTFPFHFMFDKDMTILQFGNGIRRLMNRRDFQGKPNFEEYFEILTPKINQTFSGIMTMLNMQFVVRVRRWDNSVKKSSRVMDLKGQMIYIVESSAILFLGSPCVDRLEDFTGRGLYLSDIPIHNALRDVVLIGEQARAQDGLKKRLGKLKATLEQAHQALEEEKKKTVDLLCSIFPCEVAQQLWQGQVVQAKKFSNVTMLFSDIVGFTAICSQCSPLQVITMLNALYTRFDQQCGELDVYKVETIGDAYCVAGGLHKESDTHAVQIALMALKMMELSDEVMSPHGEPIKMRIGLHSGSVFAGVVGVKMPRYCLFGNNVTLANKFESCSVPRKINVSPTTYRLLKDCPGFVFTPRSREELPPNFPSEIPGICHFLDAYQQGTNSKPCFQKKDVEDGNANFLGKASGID
Sequence of sGC (Q02153 whole entry): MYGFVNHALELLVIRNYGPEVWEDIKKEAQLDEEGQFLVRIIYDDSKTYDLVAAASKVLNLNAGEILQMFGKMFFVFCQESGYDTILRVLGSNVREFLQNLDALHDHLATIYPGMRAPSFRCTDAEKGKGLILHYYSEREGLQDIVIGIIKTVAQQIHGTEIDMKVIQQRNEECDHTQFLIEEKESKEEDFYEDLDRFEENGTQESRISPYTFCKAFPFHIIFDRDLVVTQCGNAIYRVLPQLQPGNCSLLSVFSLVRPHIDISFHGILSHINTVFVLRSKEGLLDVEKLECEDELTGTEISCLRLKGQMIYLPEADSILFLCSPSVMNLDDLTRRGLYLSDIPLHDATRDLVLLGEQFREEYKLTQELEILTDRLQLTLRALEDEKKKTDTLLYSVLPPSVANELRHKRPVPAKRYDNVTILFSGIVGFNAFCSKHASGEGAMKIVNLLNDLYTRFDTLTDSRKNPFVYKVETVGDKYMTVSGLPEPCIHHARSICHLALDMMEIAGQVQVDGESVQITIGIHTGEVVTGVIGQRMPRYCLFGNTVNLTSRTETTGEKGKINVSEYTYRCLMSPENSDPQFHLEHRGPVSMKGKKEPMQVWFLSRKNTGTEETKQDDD
Excerpt: as §1
On to `O=c1onc2cnc3ccccc3n12` [ODQ], for which the “sGC-catalyzed cGMP synthesis” value is recorded as “strongly inhibited”.

The subject of a further data set is MDM2. Put plainly: Western blotting of MDM2 in LNCaP nuclear and cytosolic extracts. The class given is cell-based. The settings on record: LNCaP cells. The protocol: FIG. 4B: Nuclear (N) and cytosolic (C) extracts were prepared from LNCaP cells and Western blotting was used to measure protein levels of MDM2, p53, JAB1, and sGCα1. β-actin was used as loading control.
LNCaP cells were infected with an sGCα1-expressing adenovirus or control empty virus and p53 subcellular localization was measured by Western blotting following cell fractionation.
A general note: Immunoblotting shows a protein as a band on a membrane.
As for `CC(C)C[C@@H](C=O)NC(=O)[C@H](CC(C)C)NC(=O)[C@H](CC(C)C)NC(=O)OCc1ccccc1` [MG132] (Cbz-Leu-Leu-Leu-aldehyde), the MDM2 cytoplasmic levels result was “significantly enhanced”.

For another data set, the system named is LNCaP cells. Description: LNCaP cell viability with etoposide, MTT assay. Type of data set: cell-based. The settings on record: 10 μM etoposide, two days. The protocol: FIG. 7B: Over-expression of sGCα1 protects prostate cancer cells from the lethal effects of etoposide. LNCaP cells were infected with control empty adenovirus (−sGCα1; 20 MOI) or sGCα1-expressing adenovirus (+sGCα1; 2 or 20 MOI) and treated with 10 μM etoposide. After two days of incubation, cell number was quantified by MTT assay. Bar graphs represent averages of three independent experiments plus standard deviations. All activities are relative to the first condition, and this activity was set to 100%.
LNCaP cells were infected with an sGCα1-expressing adenovirus and treated with etoposide, an inducer of apoptosis. […] This finding, together, with the PCR array data showing that sGCα1 can regulate Survivin expression, is consistent with results showing that Survivin desensitizes prostate cancer cells to etoposide.
A general note: Tetrazolium dyes change colour on reduction, which living cells bring about.
In the case of `COc1cc([C@@H]2c3cc4c(cc3[C@@H](O[C@@H]3O[C@@H]5CO[C@@H](C)O[C@H]5[C@H](O)[C@H]3O)[C@H]3COC(=O)[C@H]23)OCO4)cc(OC)c1O` [Etoposide], the “viability of LNCaP cells” value is “significantly reduced”.

In the next data set the test system is sGCα1. Description: Western blotting of sGCα1 expression in VCaP cells. The class given is cell-based. The settings on record: 1 nM R1881. As for the experimental part:
FIG. 11A: VCaP cells were treated with or without 1 nM R1881 and Western blotting was used to measure expression of sGCα1. β-actin was used as a loading control.
With `C[C@]1(O)CC[C@H]2[C@@H]3CCC4=CC(=O)CCC4=C3C=C[C@@]21C` [Peptide R1881, R1881], the sGCα1 protein expression entry is recorded as “significantly induced”.

A further data set deals with LNCaP cells.
Test: not given
The settings on record: increasing concentration of peptide, days; with or without 1 nM R1881. Type of data set: cell-based. As for the experimental part:
FIG. 12B: LNCaP cells were grown without androgen for 2 or 4 days in the presence of increasing concentration of Peptide A-8R [SEQ ID NO: 1] (upper left), Peptide B-8R [SEQ ID NO: 2] (upper right), Peptide C-8R [SEQ ID NO: 3] (lower left), or Peptide D-8R [SEQ ID NO: 4] (lower right). The MTT reagent was used to measure cell density.
FIG. 13A: LNCaP cells were grown with (Right) or without (Left) 1 nM androgen ([…]) for 3 or 6 days in the presence of increasing concentration of Peptide A-8R [SEQ ID NO: 1] or vehicle (70% DMSO). The MTT reagent was used to measure cell density.
FIG. 13B: LNCaP cells were grown with (Right) or without (Left) 1 nM androgen (R1881) for 3 or 6 days in the presence of increasing concentration of Peptide C-8R [SEQ ID NO: 3] or vehicle and then cell density was measured.
FIG. 14A: LNCaP cells were grown with (Right) or without (Left) 1 nM R1881 for 3 or 6 days in the presence of increasing concentration of Peptide A or vehicle and then cell density was measured.
FIG. 14B: LNCaP cells were grown with (Right) or without (Left) 1 nM R1881 for 3 or 6 days in the presence of increasing concentration of Peptide A-8R [SEQ ID NO: 1] or vehicle and then cell density was measured.
FIG. 15A: LNCaP cells were grown for 1-8 hrs in the presence of 10 μM Peptide A-8R [SEQ ID NO: 1] or vehicle and then cell density was measured.
FIG. 19C: LNCaP cells were grown with for 12 or 48 hrs in the presence of increasing concentration of Peptide A-8R [SEQ ID NO: 1] (Left) or PeptideA-8R-Biotin [SEQ ID NO: 1] (Right) and then cell density was measured.
Each peptide contained 8 arginines at the C-terminus, a sequence which is known to mediate plasma membrane translocation and cellular internalization.
To measure how rapid the cytotoxic effect of Peptide A-8R [SEQ ID NO: 1] occurs, LNCaP cells were treated with 10 μM peptide and incubated for 1-8 hrs. […] Using the same conditions, C81 cells were used to study the peptide effect on hormone-refractory prostate cancer cells.
Regarding Ac-LRLKGQMIYLRRRRRRRR-OH [Peptide B-8R], the “effect on LNCaP cell growth / cytotoxicity (in words)” value is “stopped the growth”. Same read-out and setting: as for Ac-PLHDATRDLVRRRRRRRR-OH [Peptide C-8R], the entry is “no effect”; as for Ac-TFCKAFPFHII [Peptide A], “no effect”.

Another data set relates to LNCaP cells. Description: Relief of Peptide A-8R cytotoxicity by pan-caspase inhibitor in LNCaP cells. The class given is cell-based. Particulars: 40 mM Z-VAD-FMK, 4 hrs. As for the experimental part: FIG. 18B: LNCaP cells were grown for 4 hrs in the presence of increasing concentration of Peptide A-8R [SEQ ID NO: 1] with or without […] Z-VAD-FMK and then cell density was measured.
To determine if the cytotoxicity of Peptide A-8R [SEQ ID NO: 1] is through apoptosis, LNCaP cells were monitored for Caspase 3/7 activity. […] Thus, Peptide A-8R [SEQ ID NO: 1] was able to induce Caspase 3/7 activity much faster than the well-studied apoptosis-inducing drug Etoposide. To confirm that the Peptide was killing cells via apoptosis, the inventors used the pan-caspase inhibitor Z-VAD-FMK.
For the compound `COC(=O)C[C@H](NC(=O)[C@H](C)NC(=O)[C@@H](NC(=O)OCc1ccccc1)C(C)C)C(=O)CF` [Z-VAD-FMK] (Cbz-Val-Ala-Asp(OMe)-CH2F), the “effect on Vehicle-treated cells” value was “no significant effect”.

The data set is the same for the next values; noted with them: pretreatment with 40 mM Z-VAD-FMK, peptide up to 50 μM, 4 hrs.
Regarding `COC(=O)C[C@H](NC(=O)[C@H](C)NC(=O)[C@@H](NC(=O)OCc1ccccc1)C(C)C)C(=O)CF` [Z-VAD-FMK] (Cbz-Val-Ala-Asp(OMe)-CH2F), the “relief of the Peptide A-8R cytotoxic effect” value is “complete relief”.
